{
  "source": "paper PMC10088020",
  "about": "“AA16 Oxidoreductases Boost Cellulose-Active AA9 Lytic Polysaccharide Monooxygenases from Myceliophthora thermophila” (ACS Catalysis, 2023)",
  "key": {"AnAA16A": {"target": "T1, AnAA16A (Aspergillus nidulans, UniProt Q5BFA2)", "T1 construct": "gene ANIA_00778; catalytic domain; C-terminal extension (residues 199-306) removed, native signal peptide used for secretion; C-terminal His-tag cut with TEV; Pichia pastoris X-33; N-terminal His not methylated; Cu(II)-saturated", "T1 sequence (Q5BFA2 20-198)": "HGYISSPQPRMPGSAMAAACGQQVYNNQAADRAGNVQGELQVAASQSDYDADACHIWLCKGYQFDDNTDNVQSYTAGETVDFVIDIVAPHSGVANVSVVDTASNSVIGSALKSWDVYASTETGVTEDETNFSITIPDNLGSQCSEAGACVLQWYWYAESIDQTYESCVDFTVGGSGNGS", "experiment": "H2O2 production, ferric-xylenol orange assay", "format": "biochemical", "conditions": "1 mM Pyg as reductant, O2; pH 5.0, 30 °C"}, "MtAA16A [1]": {"target": "T2, MtAA16A (Thermothelomyces thermophilus, UniProt G2QH80)", "T2 construct": "gene MYCTH_2306267; mature secreted protein, homologously produced in M. thermophila C1; signal peptide removed; N-terminal His methylated; Cu(II)-saturated", "T2 sequence (G2QH80 entry or part of it)": "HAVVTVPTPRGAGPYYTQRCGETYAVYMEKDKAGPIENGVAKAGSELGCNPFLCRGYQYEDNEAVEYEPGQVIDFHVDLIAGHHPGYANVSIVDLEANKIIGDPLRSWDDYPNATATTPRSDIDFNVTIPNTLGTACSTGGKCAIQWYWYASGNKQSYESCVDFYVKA", "experiment": "H2O2-driven oxidation to coerulignone ([…],6-DMP assay)", "format": "biochemical", "conditions": "co-substrate H2O2; Cu(II)-saturated enzyme"}, "MtAA16A [2]": {"target": "T2, MtAA16A", "experiment": "thermal shift (nDSF)", "conditions": "may reflect reduction of the active-site copper rather than binding (authors)"}},
  "data": [
    {"smiles": "Oc1cccc(O)c1O", "note": "[pyrogallol]", "values": [
      {"measurement": "H2O2 production, ferric-xylenol orange assay", "setting": "AnAA16A", "result": "we observed accumulation of H2O2 in MtAA16A-Pyg and AnAA16A-Pyg samples"}
    ]},
    {"smiles": "COc1cccc(OC)c1O", "note": "[syringol, 2,6-dimethoxyphenol]", "values": [
      {"measurement": "H2O2-driven oxidation to coerulignone (2,6-DMP assay)", "setting": "MtAA16A [1]", "result": "MtAA16A is a copper-dependent enzyme able to oxidize syringol in the presence of H2O2"},
      {"measurement": "thermal stabilization", "setting": "MtAA16A [2]", "result": "syringol induced significant thermal stabilization (Figure S8), which is consistent with binding"}
    ]}
  ]
}
